The record followed here is ChEMBL document CHEMBL5715954, “Silencing c-Myc translation as a therapeutic strategy through targeting PI3Kδ and CK1ε in hematological malignancies” (Blood, 2017).

What all share (parameters): scale not given: the % may be the effect or the level left
The target in experiment [1] is T1, Tyrosine-protein kinase JAK3 (Homo sapiens) (UniProt P52333).
T1 sequence (whole entry): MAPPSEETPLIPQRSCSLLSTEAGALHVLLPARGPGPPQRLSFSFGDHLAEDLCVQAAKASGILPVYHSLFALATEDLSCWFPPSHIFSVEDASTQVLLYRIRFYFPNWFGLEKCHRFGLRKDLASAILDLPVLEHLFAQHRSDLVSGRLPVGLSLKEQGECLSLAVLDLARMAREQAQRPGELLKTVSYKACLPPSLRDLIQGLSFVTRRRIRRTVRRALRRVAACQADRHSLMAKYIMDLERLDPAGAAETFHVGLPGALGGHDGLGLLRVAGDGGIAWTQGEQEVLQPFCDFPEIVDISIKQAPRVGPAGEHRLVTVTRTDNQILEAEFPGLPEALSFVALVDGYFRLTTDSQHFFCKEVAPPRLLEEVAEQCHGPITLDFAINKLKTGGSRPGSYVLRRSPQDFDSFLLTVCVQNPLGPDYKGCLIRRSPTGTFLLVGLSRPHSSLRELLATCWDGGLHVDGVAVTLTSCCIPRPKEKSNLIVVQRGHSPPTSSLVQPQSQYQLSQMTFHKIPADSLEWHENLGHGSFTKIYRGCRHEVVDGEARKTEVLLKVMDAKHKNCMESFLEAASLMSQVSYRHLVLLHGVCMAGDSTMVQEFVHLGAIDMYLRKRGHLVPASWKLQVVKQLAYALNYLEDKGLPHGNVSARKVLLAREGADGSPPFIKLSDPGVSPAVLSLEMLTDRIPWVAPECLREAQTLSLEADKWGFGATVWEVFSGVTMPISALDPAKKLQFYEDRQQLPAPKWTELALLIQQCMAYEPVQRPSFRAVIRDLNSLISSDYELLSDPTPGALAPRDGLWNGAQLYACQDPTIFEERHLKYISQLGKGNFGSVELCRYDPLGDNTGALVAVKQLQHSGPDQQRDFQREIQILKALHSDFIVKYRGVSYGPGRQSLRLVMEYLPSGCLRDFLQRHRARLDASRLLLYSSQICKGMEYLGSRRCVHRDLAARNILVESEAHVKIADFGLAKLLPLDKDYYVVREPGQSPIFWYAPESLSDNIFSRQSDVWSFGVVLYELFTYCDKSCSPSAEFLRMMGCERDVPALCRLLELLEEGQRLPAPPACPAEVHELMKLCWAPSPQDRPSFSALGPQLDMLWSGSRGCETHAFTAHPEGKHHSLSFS
As to the kind of experiment: Inhibition of human JAK3 assessed as enzyme activity at 1 uM using GGEEEEYFELVKKKK as substrate preincubated for 20 mins followed by [gamma-33P]-ATP addition and measured after 120 mins by radiometric Hot-SpotSM Kinase assay relative to control.

The target in experiment [2] is Dual specificity protein kinase CLK3 (Homo sapiens) (UniProt P49761). As to the kind of experiment: Inhibition of human CLK3 assessed as enzyme activity at 1 uM using myelin basic protein as substrate preincubated for 20 mins followed by [gamma-33P]-ATP addition and measured after 120 mins by radiometric Hot-SpotSM Kinase assay relative to control.
Dual specificity protein kinase CLK3 (Homo sapiens), sequence (P49761 whole entry, looked up): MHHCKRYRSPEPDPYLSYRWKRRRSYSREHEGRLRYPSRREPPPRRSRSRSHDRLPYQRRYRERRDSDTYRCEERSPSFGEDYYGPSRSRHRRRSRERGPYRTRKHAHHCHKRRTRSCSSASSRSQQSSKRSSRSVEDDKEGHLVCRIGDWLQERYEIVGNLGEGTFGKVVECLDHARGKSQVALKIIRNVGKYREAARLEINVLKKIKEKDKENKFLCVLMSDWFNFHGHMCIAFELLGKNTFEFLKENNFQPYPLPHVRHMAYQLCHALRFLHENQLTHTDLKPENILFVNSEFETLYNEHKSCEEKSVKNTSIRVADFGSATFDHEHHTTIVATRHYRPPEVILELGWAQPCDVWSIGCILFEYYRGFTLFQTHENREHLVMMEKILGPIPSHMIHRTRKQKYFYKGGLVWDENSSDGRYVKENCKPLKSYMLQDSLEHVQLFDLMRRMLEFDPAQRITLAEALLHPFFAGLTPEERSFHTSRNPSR
Experiment [3] addresses T2, Ephrin type-A receptor 1 (Homo sapiens) (UniProt P21709).
T2 sequence (whole entry): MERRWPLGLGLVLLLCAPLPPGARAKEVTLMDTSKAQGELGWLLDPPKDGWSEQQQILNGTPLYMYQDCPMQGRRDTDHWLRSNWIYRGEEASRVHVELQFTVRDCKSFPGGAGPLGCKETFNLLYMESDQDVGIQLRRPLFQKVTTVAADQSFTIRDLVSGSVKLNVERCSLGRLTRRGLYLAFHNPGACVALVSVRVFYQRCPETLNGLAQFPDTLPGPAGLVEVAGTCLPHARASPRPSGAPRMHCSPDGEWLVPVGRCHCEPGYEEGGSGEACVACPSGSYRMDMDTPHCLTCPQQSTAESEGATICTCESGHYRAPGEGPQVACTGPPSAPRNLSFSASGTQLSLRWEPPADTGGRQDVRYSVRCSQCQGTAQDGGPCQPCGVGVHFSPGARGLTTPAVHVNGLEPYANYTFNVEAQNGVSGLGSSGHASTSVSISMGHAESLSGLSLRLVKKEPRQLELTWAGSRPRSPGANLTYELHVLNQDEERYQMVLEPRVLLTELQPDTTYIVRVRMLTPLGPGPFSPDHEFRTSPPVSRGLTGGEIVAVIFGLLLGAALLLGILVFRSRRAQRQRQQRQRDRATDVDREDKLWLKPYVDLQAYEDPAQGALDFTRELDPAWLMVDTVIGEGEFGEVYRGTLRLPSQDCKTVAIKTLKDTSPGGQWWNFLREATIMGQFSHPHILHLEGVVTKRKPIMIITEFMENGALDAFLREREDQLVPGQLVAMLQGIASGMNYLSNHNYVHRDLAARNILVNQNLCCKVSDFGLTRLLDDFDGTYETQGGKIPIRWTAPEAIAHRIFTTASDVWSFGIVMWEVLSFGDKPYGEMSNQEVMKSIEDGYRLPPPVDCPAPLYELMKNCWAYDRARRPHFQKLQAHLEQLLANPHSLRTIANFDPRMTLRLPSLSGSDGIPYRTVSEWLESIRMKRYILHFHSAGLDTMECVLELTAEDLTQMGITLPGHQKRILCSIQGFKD
As to the kind of experiment: Inhibition of human EPHA1 assessed as enzyme activity at 1 uM using poly[Glu:Tyr] (4:1) as substrate preincubated for 20 mins followed by [gamma-33P]-ATP addition and measured after 120 mins by radiometric Hot-SpotSM Kinase assay relative to control.

Experiment [4] has as its target Serine/threonine-protein kinase VRK2 (Homo sapiens) (UniProt Q86Y07). As to the kind of experiment: Inhibition of human VRK2 assessed as enzyme activity at 1 uM using casein as substrate preincubated for 20 mins followed by [gamma-33P]-ATP addition and measured after 120 mins by radiometric Hot-SpotSM Kinase assay relative to control.
The target in experiment [5] is Fibroblast growth factor receptor 4 (Homo sapiens) (UniProt P22455). As to the kind of experiment: Inhibition of human FGFR4 assessed as enzyme activity at 1 uM using poly[Glu:Tyr] (4:1) as substrate preincubated for 20 mins followed by [gamma-33P]-ATP addition and measured after 120 mins by radiometric Hot-SpotSM Kinase assay relative to control.
Fibroblast growth factor receptor 4 (Homo sapiens), sequence (P22455 22-802 limits assumed): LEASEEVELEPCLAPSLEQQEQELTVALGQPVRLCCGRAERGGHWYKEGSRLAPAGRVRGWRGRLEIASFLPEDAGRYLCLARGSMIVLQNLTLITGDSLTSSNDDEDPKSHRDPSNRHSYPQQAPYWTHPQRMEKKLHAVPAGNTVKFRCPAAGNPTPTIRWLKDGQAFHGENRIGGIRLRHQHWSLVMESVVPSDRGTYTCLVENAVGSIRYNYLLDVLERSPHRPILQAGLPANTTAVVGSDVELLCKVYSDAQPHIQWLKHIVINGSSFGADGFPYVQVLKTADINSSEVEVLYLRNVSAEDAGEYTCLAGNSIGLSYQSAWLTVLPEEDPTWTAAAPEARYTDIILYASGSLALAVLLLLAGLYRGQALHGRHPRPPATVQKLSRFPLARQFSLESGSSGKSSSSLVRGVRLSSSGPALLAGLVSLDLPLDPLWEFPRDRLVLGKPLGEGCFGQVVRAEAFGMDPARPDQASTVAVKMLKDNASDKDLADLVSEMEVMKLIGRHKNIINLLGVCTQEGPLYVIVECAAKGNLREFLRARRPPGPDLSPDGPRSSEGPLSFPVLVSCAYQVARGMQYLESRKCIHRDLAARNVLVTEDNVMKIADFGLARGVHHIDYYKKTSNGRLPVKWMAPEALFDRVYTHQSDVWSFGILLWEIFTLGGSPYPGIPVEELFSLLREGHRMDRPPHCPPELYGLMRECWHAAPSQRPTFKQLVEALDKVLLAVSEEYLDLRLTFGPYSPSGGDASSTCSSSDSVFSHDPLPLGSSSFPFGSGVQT
Experiment [6] addresses Dual specificity protein kinase CLK4 (Homo sapiens) (UniProt Q9HAZ1). As to the kind of experiment: Inhibition of human CLK4 assessed as enzyme activity at 1 uM using myelin basic protein as substrate preincubated for 20 mins followed by [gamma-33P]-ATP addition and measured after 120 mins by radiometric Hot-SpotSM Kinase assay relative to control.
The target of experiment [7] is Insulin receptor (Homo sapiens) (UniProt P06213). As to the kind of experiment: Inhibition of human IR assessed as enzyme activity at 1 uM using poly[Glu:Tyr] (4:1) as substrate preincubated for 20 mins followed by [gamma-33P]-ATP addition and measured after 120 mins by radiometric Hot-SpotSM Kinase assay relative to control.
Insulin receptor (Homo sapiens), sequence (P06213 28-758 limits assumed): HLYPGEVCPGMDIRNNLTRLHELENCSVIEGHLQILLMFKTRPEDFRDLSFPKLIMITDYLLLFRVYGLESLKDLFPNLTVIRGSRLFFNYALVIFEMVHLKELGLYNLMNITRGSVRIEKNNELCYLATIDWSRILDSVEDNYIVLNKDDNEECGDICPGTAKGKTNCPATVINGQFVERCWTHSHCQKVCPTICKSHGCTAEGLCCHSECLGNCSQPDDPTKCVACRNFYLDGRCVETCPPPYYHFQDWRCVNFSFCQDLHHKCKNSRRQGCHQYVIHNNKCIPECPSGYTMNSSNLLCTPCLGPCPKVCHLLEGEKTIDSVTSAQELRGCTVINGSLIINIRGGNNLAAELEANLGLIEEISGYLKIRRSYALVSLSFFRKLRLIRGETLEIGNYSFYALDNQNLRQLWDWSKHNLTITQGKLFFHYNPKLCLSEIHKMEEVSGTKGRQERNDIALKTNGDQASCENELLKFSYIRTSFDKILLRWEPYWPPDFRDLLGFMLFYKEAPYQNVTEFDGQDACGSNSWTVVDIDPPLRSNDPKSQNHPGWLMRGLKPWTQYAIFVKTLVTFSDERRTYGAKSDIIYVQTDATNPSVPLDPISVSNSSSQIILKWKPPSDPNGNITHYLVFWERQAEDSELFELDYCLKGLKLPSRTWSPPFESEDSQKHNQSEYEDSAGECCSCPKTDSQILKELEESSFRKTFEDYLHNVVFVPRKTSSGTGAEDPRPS
Insulin receptor (Homo sapiens), sequence (P06213 763-1382 limits assumed): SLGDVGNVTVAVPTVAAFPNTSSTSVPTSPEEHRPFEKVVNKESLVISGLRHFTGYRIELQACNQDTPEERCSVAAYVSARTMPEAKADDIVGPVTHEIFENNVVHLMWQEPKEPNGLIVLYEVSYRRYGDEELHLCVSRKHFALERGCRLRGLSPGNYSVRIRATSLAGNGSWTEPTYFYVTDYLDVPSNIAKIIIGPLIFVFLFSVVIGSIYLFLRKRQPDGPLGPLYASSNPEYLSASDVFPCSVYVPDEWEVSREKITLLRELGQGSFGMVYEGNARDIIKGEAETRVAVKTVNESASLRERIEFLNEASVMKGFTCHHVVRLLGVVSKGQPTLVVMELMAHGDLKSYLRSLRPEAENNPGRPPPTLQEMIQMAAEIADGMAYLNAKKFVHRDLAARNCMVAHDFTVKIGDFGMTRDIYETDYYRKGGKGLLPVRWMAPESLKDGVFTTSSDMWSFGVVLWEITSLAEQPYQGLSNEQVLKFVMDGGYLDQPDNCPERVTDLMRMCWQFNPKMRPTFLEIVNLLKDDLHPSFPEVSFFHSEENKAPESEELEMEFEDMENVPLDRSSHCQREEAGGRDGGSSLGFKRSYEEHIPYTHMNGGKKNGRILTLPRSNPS

Serine/threonine-protein kinase VRK2 (Homo sapiens), sequence (Q86Y07 whole entry): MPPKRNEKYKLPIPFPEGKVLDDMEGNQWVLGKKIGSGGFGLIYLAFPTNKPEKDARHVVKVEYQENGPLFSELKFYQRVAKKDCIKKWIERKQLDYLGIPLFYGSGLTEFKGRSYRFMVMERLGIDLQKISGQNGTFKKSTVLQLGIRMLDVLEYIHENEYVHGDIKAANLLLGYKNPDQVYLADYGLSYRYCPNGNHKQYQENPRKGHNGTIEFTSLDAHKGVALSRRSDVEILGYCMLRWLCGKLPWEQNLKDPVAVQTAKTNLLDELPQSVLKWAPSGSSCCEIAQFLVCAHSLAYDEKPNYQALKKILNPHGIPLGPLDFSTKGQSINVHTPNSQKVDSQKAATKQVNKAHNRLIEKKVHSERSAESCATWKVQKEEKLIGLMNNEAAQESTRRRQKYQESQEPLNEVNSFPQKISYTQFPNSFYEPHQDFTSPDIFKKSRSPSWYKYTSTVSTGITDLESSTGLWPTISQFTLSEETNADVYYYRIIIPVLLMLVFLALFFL
Dual specificity protein kinase CLK4 (Homo sapiens), sequence (Q9HAZ1 whole entry, looked up): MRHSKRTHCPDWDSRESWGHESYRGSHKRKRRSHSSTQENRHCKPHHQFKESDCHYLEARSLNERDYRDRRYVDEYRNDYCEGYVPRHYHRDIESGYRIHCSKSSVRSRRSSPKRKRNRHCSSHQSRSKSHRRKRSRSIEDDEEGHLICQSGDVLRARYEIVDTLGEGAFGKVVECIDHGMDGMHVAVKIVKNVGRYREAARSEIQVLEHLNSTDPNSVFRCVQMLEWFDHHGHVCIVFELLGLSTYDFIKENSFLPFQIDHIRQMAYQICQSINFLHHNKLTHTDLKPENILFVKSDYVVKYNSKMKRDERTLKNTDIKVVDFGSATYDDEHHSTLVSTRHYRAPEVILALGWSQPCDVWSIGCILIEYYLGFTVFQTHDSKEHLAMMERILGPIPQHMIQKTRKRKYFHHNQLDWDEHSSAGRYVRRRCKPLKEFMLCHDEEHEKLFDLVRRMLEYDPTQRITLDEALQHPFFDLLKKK

In the case of `C[C@H](Nc1ncnc2nc[nH]c12)c1cc2cccc(Cl)c2c(=O)n1-c1ccccc1`, the Activity in experiment [1] was determined as 95.2%; in experiment [2], 92.3%; in experiment [3], 95.2%; in experiment [4] it was 88.3%; in experiment [5], 94.5%; in experiment [6], 107%. Moreover, in experiment [7], the Activity stood at 98.2%.
Regarding `CC[C@H](Nc1ncnc2[nH]cnc12)c1nc2cccc(F)c2c(=O)n1-c1ccccc1`, the Activity in experiment [1] is 94.3%; in experiment [2], 89%; in experiment [3], 91.4%; in experiment [4] it was 98.3%; in experiment [5], 97.3%; in experiment [6] it was 103%. In experiment [7], the Activity was 99.5%.
Consider `CC(C)Oc1ccc(-c2nn([C@@H](C)c3oc4ccc(F)cc4c(=O)c3-c3cccc(F)c3)c3ncnc(N)c23)cc1F` [UMBRALISIB], for which the Activity worked out at 91.2% in experiment [1]; 93.7% in experiment [2]; 96.4% in experiment [3]; 87% in experiment [4]; 93.2% in experiment [5]; 116% in experiment [6]. For the same compound, the Activity in experiment [7] is 99.5%.
